The source of these data is patent US20020137054A1, “AXOR35, a G-protein coupled receptor” (SmithKline Beecham Corporation & SmithKline Beecham plc, priority 1999, published 2002).

SMILES strings stand for the structures. Counter-ions that a name gives are not always drawn.

The target in data set [1] is T1, AXOR35 (Homo sapiens, UniProt Q9H3N8). As to conditions: histamine challenge of control cells transiently expressing AXOR35. The procedure:
Prior to challenge with histamine, cells transiently expressing AXOR35 are treated with increasing concentrations of test compound. […] Antagonist activity is calculated as the concentration of test compound required to inhibit 50% of a maximum histamine response (IC50).

In data set [2] the target is T1, AXOR35. As to conditions: calcium mobilization response, method analogous to Example 8. In general terms: Calcium assays in cells follow changes in intracellular calcium, usually with a dye or a luminescent sensor.

T1 sequence (Q9H3N8 whole entry): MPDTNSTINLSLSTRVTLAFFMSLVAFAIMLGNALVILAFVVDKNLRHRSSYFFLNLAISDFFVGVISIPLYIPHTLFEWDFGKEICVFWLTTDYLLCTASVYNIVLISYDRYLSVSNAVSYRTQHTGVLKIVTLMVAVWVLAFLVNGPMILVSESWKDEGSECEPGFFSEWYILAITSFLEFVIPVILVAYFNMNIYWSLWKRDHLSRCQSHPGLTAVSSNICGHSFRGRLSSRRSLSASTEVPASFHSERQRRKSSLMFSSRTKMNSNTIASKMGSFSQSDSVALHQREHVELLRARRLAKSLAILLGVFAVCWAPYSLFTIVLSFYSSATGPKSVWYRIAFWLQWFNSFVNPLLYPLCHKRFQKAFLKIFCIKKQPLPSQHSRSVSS

As a reminder, the melting point is the temperature, or range, at which the solid turns liquid. Turning to `NCC(c1ccccc1)c1cnc[nH]1` (stereo not shown) (as salt: hydrochloride), the melting point is 264 to 266 °C.
`NCC(Cc1ccc(Cl)cc1)c1c[nH]cn1` (stereo not shown) (as salt: hydrochloride) displayed a melting point of 254 to 256 °C.
Broadly, the EC80 is the concentration at which the effect reaches the 80% level. High values mean weaker potency, low ones greater potency. Consider `NCCc1c[nH]cn1` [histamine, 1H-imidazole-4-ethanamine], for which, on AXOR35 [1], the EC80 turned out to be 100 nM. Also, the “ligand for AXOR35” value at AXOR35 [2] is “ligands for AXOR35”.
